Data taken from US20260224596A1, “Phosphate Prodrugs of Cannabinoids” (Emory University, priority 2023, published 2026).
In brackets after ≈: the same amount, converted by molar mass. Counter-ions that a name gives are not always drawn.

Experiments:
[1] = Liver microsome stability assay (HLM); format: in vitro ADME; details: human liver microsomes, 3 μM test compound, NADPH, 0-30 min, LC-MS/MS; for half-life at 3 μM: pH 7.4, read-out: T½ in HLM
Experimental: As used herein, the “human liver microsomes stability, T1/2” is determined according to the procedure described in Example 9.
Human and mouse liver microsomes were purchased from Xenotech at 20 mg/mL. NADPH (Sigma-Aldrich) 10 mM stocks were prepared in deionized water.
Test compounds and positive controls were dissolved in 100% DMSO to make 10 mM stock solutions. Verapamil (Sigma-Aldrich) and diphenhydramine (Sigma-Aldrich) were used as positive controls for both human liver microsomes (HLM) and mouse liver microsomes (MLM). The 10 mM stock solutions of test and control compounds were further diluted in potassium phosphate buffer (100 mM, pH 7.4) to 500 μM to ensure that the organic solvent content was <0.2%. The liver microsome (HLM or MLM) assay was prepared in a 1.5 mL Eppendorf tube with a final volume of 1100 μL for duplicate runs. Each reaction contained phosphate buffer (928.4 μL), liver microsomes (55 μL), and test compound (6.6 μL of 500 μM), resulting in a final concentration of 3 μM for the test compound. The reaction was initiated with 110 μL of 10 mM NADPH. Aliquots (100 μL) were removed in duplicate at 0, 5, 10, 15, and 30 min and quenched in […] of 100% cold methanol which contained internal standard (ISTD: d5-7-ethoxy coumarin 2 μM). The aliquots were centrifuged at 12,000g for 5 min, and the supernatant was transferred and placed in an LC-MS vial. Each time point was assessed by LC-MS/MS, and the area under the m/z curve (AUC), based on the MRM transition, was integrated w.r.t the ISTD. Positive controls were conducted at a final volume of 550 μL to enable a single run for each time point. Negative controls in the absence of NADPH were performed with the test and control compounds, respectively, at a final volume of 150 μL and measured at the most prolonged time point. Control compounds were processed and analyzed like test compounds. Each time point was run in triplicates on LC-MS/MS followed by in-between blank washes to avoid the carryover and to equilibrate the column. Half-life (T1/2) was calculated using the data obtained from LC-MS/MS and by plotting ln (% remaining of the parent prodrug) versus time and performing linear regression to determine slope. Slope=−k and T1/2=0.693/k for first-order kinetics.

Plasma stability assay = format: in vitro ADME, human; details: for half-life at 3 μM: read-out: T½ in human plasma; for Δ^8-THC detected in plasma: release of parent Δ^8-THC in human plasma incubation
Experimental: As used herein, the “human plasma stability, T1/2” is determined according to the procedure described in Example 10.
Procaine and Procainamide were purchased from Sigma-Aldrich. Human plasma was obtained from BioIVT (Cat. No. […]2N) and 1× Dulbecco's PBS (pH 7.4, Gibco) was obtained from Thermos Fischer. Stock solutions were prepared in 100% DMSO, and suitable dilutions of target analytes were prepared in methanol for method development.
Test compounds were dissolved in DMSO to make a stock solution of 10 mM and then diluted to 500 μM in buffer (or 70% MeOH). Human plasma was thawed at ambient temperature and is aliquoted (994.0 μL) to a 1.5 mL Eppendorf tube in duplicates (A and B) for each compound. Plasma was incubated at 37° C. for 10 minutes in an incubator shaker at 150 rpm; the reaction was initiated by the addition of the test compound (6.0 μL) and vortex mixing. The total reaction volume was 1000 μL where the final organic solvent concentrations were 0.6% MeOH and 0.03% DMSO. The spiked plasma samples were incubated at 37° C. for […]. The reactions were terminated at time points 0, 15, 30, 60, and 120 min by taking a 100 μL aliquot from the test incubation mixture and immediately quenching it in ice-cold mathanol containing internal standard (150 μL with 2 μM ISTD), followed by a quick vortex mixing. In addition, matrix blank was prepared by adding methanol solutions containing ISTD to plasma samples without any of the analytes or control compounds. Also, an additional tube was made to measure compound degradation in PBS buffer. The samples were centrifuged at 15,000 rpm for 25 min at 4° C. The supernatant was transferred to an LC-MS vial for analysis by LC/MS-MS. Each time point was run in duplicates followed by in-between blank washes to avoid the carryover and to equilibrate the column. Half-life (T1/2) was calculated using the data obtained from LC-MS/MS and by plotting ln (% remaining of the parent prodrug) versus time and performing linear regression to determine slope. Slope=−k and T1/2=0.693/k for first-order kinetics. Procaine (poor plasma stability) was used as a positive control at a final concentration of 3 μM. The positive control was run in parallel to test the systems for competency.
An exemplary experimental setup is described below. Conical polypropylene microcentrifuge tubes (1.5 mL) were labelled in duplicate for 0, 15, 30, 60, and 120 min for each compound being tested. • Example: No. of tubes prepared per Test Compound (TC): • Test compound: 994 μL human plasma+6.0 μL TC (Vial A) • 994 μL human plasma+6.0 μL TC (Vial B) • Positive control: 596 μL human plasma+3.6 μL (procaine) • Matrix blank: 500 μL PBS buffer+100 μL human plasma • Negative control: 142 μL PBS buffer+0.9 μL TC1 • Quenching mixture: 150 μL methanol with ISID (2 μM) • Final volume after quenching: 250 μL (100 μL from the incubation mixture and 150 μL from the quenching mixture; ISTD conc. 1.2 μM)

[2] = Nephelometry solubility in 1% DMSO; format: physicochemical; details: PBS pH 7.0-7.3 with 1% DMSO, 25° C.; for solubility at 90 min: Dulbecco's phosphate-buffered saline with 1% DMSO, aqueous buffer, kinetic from dmso stock
Experimental: Nephelometry experiments were performed using untreated CORNING® COSTAR® 96-well black polystyrene plates with clear flat bottoms. Sample stock solutions and serial dilutions were prepared with DRISOLV® DMSO purchased from MilliporeSigma. […] Nephelometry data was obtained using a NEPHELOSTAR® microplate reader and processed with MARS data analysis software from BMG LabTech.
Tested compounds were dissolved in 100% DMSO to make stock solutions of specified concentrations, ranging from 10 mM minimum up to 50 mM maximum. The sample then underwent serial dilution in a 96-well plate (CORNING® COSTAR®). Well A1 of the plate contained 100% DMSO. […] Using a 12-channel multichannel pipette, 2.5 μL of sample from row A was transferred to each well in row B through row H of the plate. Next, 30 μL of PBS (pH=7.0-7.3) was added to row B through row H, providing each well with 32.5 μL. The plate was then incubated for 30 sec with shaking. Finally. 217.5 μL of PBS buffer was added to row B through row H, and the entire plate was incubated with shaking at 25° C. for 90 min. The final volume of DMSO in actual experiments with PBS buffer was 1% throughout the plate. After 90 min. the 96-well plate was analyzed with a NEPHELOSTAR® instrument and the data was processed with MARS data analysis software.

[3] = human plasma, 37° C., time points 0-120 min, LC-MS/MS

SMILES	half-life at 3 μM [1] [min]	half-life at 3 μM (Plasma stability assay; [3]) [min]	Δ^8-THC detected in plasma (Plasma stability assay)	solubility at 90 min [2] [µM]	T½ in human plasma (Plasma stability assay; [3]) [min]	Solubility in 1% DMSO ([2]; 90 min) [µM]	T½ in HLM [1] [min]
CCCCCc1cc(OC(=O)OCCCOP(=O)(O)O)c2c(c1)OC(C)(C)[C@@H]1CC=C(C)C[C@@H]21 [Compound 11a, 3-(phosphonooxy)propyl ((6aR,10aR)-6,6,9-trimethyl-3-pentyl-6a,7,10,10a-tetrahydro-6H-benzo[c]chromen-1-yl) carbonate di-ammonium salt]	18.8	–	–	–	–	–	–
CCCCCc1cc(OC(=O)OCCCCOP(=O)(O)O)c2c(c1)OC(C)(C)[C@@H]1CC=C(C)C[C@@H]21.N.N [Compound 11b, 4-(phosphonooxy)butyl ((6aR,10aR)-6,6,9-trimethyl-3-pentyl-6a,7,10,10a-tetrahydro-6H-benzo[c]chromen-1-yl) carbonate di-ammonium salt]	17.2	> 120	Yes	> 500	–	–	–
CCCCCc1cc(O)c2c(c1)OC(C)(C)[C@@H]1CC=C(C)C[C@@H]21 (relative stereo) [Δ^8-THC, (−)trans-Δ^8-THC, reference compound]	–	–	–	–	1440 ± 360	15.93 ± 0.8 (≈ 5.01 µg/mL)	5.51
CCCCCc1cc(OC(=O)CCCCOP(=O)(O)O)c2c(c1)OC(C)(C)[C@@H]1CC=C(C)C[C@@H]21.N.N [Compound 16b, (6aR,10aR)-6,6,9-trimethyl-3-pentyl-6a,7,10,10a-tetrahydro-6H-benzo[c]chromen-1-yl 5-(phosphonooxy)pentanoate di-ammonium salt]	40.1	–	–	> 500	–	–	–
CCCCCc1cc(OC(=O)NCCOP(=O)(O)O)c2c(c1)OC(C)(C)[C@@H]1CC=C(C)C[C@@H]21.N.N [Compound 21a, (6aR,10aR)-6,6,9-trimethyl-3-pentyl-6a,7,10,10a-tetrahydro-6H-benzo[c]chromen-1-yl (2-(phosphonooxy)ethyl)carbamate di-ammonium salt]	5.6	–	–	> 500	–	–	–
CCCCCc1cc(OC(=O)NCCCOP(=O)(O)O)c2c(c1)OC(C)(C)[C@@H]1CC=C(C)C[C@@H]21.N.N [Compound 21b, (6aR,10aR)-6,6,9-trimethyl-3-pentyl-6a,7,10,10a-tetrahydro-6H-benzo[c]chromen-1-yl (3-(phosphonooxy)propyl)carbamate di-ammonium salt]	12.5	> 120	Yes	> 500	–	–	–
CCCCCc1cc(OC(=O)CCCOP(=O)(O)O)c2c(c1)OC(C)(C)[C@@H]1CC=C(C)C[C@@H]21.N.N [Compound 16a, (6aR,10aR)-6,6,9-trimethyl-3-pentyl-6a,7,10,10a-tetrahydro-6H-benzo[c]chromen-1-yl 4-(phosphonooxy)butanoate di-ammonium salt]	51.3	> 120	Yes	> 500	–	–	–
